Reference: US20250197405A1, “HETEROAROMATIC COMPOUNDS AS PKMYT1 INHIBITORS AND USE THEREOF” (INSILICO MEDICINE IP LIMITED, priority 2022, published 2025)

Target: PKMYT1 (Homo sapiens (Human), UniProt Q99640)
Assay: PKMYT1 HTRF assay
Assay type: binding
Conditions: Tracer 178, GST-Tb, compound 10 μM to 0.5 nM
Description: Compound serial dilution was performed by Echo, and the final concentrations varied from 10 μM to 0.5 nM. 5 μL/well of Enzyme solution was added to the assay plate containing the compound. The plate was centrifuged at 1000 rpm for 1 min, and incubated at 25° C. for 15 min. […] Next, 5 μL of GST-Tb was added into the assay plate, the plate was centrifuged at 1000 rpm for 1 min, and incubated at 25° C. for 15 min. The assay plate was read on Envision.

Sequence of PKMYT1 (Q99640 whole entry): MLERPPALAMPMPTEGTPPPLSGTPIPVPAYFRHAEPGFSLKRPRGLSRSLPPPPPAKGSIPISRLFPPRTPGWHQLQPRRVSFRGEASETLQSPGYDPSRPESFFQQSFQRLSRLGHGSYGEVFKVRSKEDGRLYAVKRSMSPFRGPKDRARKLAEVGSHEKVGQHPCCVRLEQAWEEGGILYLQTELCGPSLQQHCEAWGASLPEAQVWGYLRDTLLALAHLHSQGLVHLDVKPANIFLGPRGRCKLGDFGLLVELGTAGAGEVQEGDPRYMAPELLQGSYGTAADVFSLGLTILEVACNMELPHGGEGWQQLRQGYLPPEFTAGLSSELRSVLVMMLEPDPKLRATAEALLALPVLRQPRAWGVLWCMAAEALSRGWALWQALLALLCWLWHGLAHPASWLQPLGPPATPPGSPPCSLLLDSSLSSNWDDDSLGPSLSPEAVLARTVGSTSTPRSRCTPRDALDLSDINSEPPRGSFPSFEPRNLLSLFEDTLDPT

Compound	IC50 [nM]
Cc1ccc(O)c(C)c1-n1c(N)c(C(N)=O)c2c(=O)n(CF)c(C)nc21 [Compound 12-P2]	1.5
Cc1ncc2c(C(N)=O)c(N)n(-c3c(C)ccc(O)c3Cl)c2n1 [Compound 4, 6-amino-7-(2-chloro-3-hydroxy-6-methylphenyl)-2-methylpyrrolo[2,3-d] pyrimidine-5-carboxamide]	4.1
Cc1nc(OCF)c2c(C(N)=O)c(N)n(-c3c(C)ccc(O)c3C)c2n1 [Compound 11]	2.3
Cc1ccc(O)c(C)c1-n1c(N)c(C(N)=O)c2cnc(C(F)(F)F)nc21 [Compound 2]	8.9
Cc1nc(Oc2cnn(C)c2)c2c(C(N)=O)c(N)n(-c3c(C)ccc(O)c3C)c2n1 (atropisomer, axis not shown) [Compound 9]	2.8
COc1nc(C)nc2c1c(C(N)=O)c(N)n2-c1c(C)ccc(O)c1C (atropisomer, axis not shown) [Compound 7]	1.5
Cc1ccc(O)c(C)c1-n1c(N)c(C(N)=O)c2c(=O)n(C)c(C)cc21 [Compound 3, 2-amino-1-(3-hydroxy-2,6-dimethylphenyl)-5,6-dimethyl-4-oxopyrrolo[3,2-c]pyridine-3-carboxamide]	11.9
Cc1nc(N2CCC2)c2c(C(N)=O)c(N)n(-c3c(C)ccc(O)c3C)c2n1 (atropisomer, axis not shown) [Compound 8]	13
Cc1nc(OC(F)F)c2c(C(N)=O)c(N)n(-c3c(C)ccc(O)c3C)c2n1 [Compound 10]	3.4
